Reference: article PMC10138506, “Design, Synthesis and Cytotoxic Activity of Novel Salicylaldehyde Hydrazones against Leukemia and Breast Cancer” (International Journal of Molecular Sciences, 2023)
Where two headings read alike, the source gives them in different places.

Assays:
K-562 cells = assay: MTT-dye reduction cytotoxicity assay, K-562; format: cell-based, human; conditions: for IC50: Homo sapiens, K562; for Ligand Efficiency (LE) K-562: LE = pIC50/number of heavy atoms; for SI (selectivity index) K-562: SI = IC50 (HEK-293)/IC50 (cancer cells)
Method: (§1) The research included four leukemic and three cancer human cell lines: HL-60 (acute myeloid leukemia), SKW-3 (KE-37 derivative) (T-cell leukemia), BV-173 and K-562 (chronic myeloid leukemia), MDA-MB-231 (ER-negative breast carcinoma), MCF-7 (ER-positive breast adenocarcinoma), and SaOS-2 (osteogenic sarcoma). The cells were provided from the German Collection of Microorganisms and Cell Cultures (DSMZ, Braunschweig, Germany). The solid tumor cell lines (MDA-MB-231, MCF-7, and SaOS-2) were incubated in 90% RPMI-1640 supplemented with 10% fetal bovine serum (FBS), non-essential amino acids, 1 mM sodium pyruvate, and […] human insulin as monolayer adherent cultures. The remaining cell lines were cultivated as a suspension culture in cell culture flasks at 37 °C in an incubator “BB 16-Function Line” Heraeus (Kendro, Hanau, Germany) with humidified atmosphere and 5% CO2 under standard conditions–RPMI-1640 liquid media supplemented with 10% FBS and 2 mM L-glutamine. The cells were kept in log phase by supplementing with fresh media after removing cell suspension aliquots two or three times each week.
(§2) At least eight wells were used for each concentration.

SaOS-2 cells = assay: MTT-dye reduction cytotoxicity assay, SaOS-2; format: cell-based, human; conditions: for IC50: Homo sapiens, SAOS-2; for SI (selectivity index) SaOS-2: SI = IC50 (HEK-293)/IC50 (cancer cells)
Method: as §1, §2

BV-173 cells = assay: MTT-dye reduction cytotoxicity assay, BV-173; format: cell-based, human; conditions: for IC50: Homo sapiens, BV-173; for SI (selectivity index) BV-173: SI = IC50 (HEK-293)/IC50 (cancer cells)
Method: as §1, §2

MDA-MB-231 cells = assay: MTT-dye reduction cytotoxicity assay, MDA-MB-231; format: cell-based, human; conditions: for IC50: Homo sapiens, MDA-MB-231; for SI (selectivity index) MDA-MB-231: SI = IC50 (HEK-293)/IC50 (cancer cells)
Method: as §1, §2

KE-37 cells = assay: MTT-dye reduction cytotoxicity assay, KE-37; format: cell-based, human; conditions: for IC50: Homo sapiens, KE-37; for SI (selectivity index) KE-37: SI = IC50 (HEK-293)/IC50 (cancer cells)
Method: as §1, §2

MCF-7 cells = assay: MTT-dye reduction cytotoxicity assay, MCF-7; format: cell-based, human; conditions: for IC50: Homo sapiens, MCF7; for SI (selectivity index) MCF-7: SI = IC50 (HEK-293)/IC50 (cancer cells)
Method: as §1, §2

HL-60 cells = assay: MTT-dye reduction cytotoxicity assay, HL-60; format: cell-based, human; conditions: for IC50: Homo sapiens, HL-60; for SI (selectivity index) HL-60: SI = IC50 (HEK-293)/IC50 (cancer cells)
Method: as §1, §2

[1] = MTT-dye reduction cytotoxicity assay, normal HEK-293; conditions: human, HEK-293 cells (normal human embryonic kidney)
Method: (§3) To assess the selectivity of the newly synthesized derivatives, they were tested on the normal human embryonic kidney HEK-293 cell line. The derived IC50 values were used to calculate the selectivity index according to the formula SI = IC50 (normal cells)/IC50 (cancer cells).
The cytotoxic activity of the examined substances was determined using Mossman’s MTT [3-(4,5-dimethylthiazol-2-yl)-2,5-diphenyltetrazolium bromide] dye reduction assay. The approach is based on the reduction of the yellow tetrazolium salt MTT to a violet formazan in live cells via mitochondrial succinate dehydrogenase. In brief, exponentially developing cells were seeded at a density of 1 × 10^5 cells per ml in 96-well flat-bottomed microplates (100 μL/well), and after 24 h of incubation at 37 °C, they were treated to varied doses of the tested substances for 72 h. At least eight wells were used for each concentration. Following the incubation with the test compounds, aliquots of 10 μL MTT solution (10 mg/mL in PBS) were applied to each well. The microplates were then incubated at 37 °C for 4 h before the MTT-formazan crystals were dissolved with 100 μL/well 5% HCOOH in 2-propanol. The MTT-formazan absorbance was measured at 580 nm using a microprocessor-controlled microplate reader (Labexim LMR-1).
The cell survival data were standardized as a percentage of the untreated control (set as 100% viability). The biological data were processed statistically using Student’s t-test, where values were considered statistically significant at p ≤ 0.05. The corresponding IC50 values were obtained to allow quantitative merit for the assessment of the relative potencies of the compounds under investigation. Each data point represents the arithmetic mean ± standard deviation (sd) of at least eight independent experiments.

[2] = test system: HL-60, KE-37, K-562, BV-173, SaOS-2, MDA-MB-231, MCF-7 cell lines; assay: Average over the cancer cell lines tested (LE, SI); format: cell-based, human; conditions: average over seven cancer cell lines
Method: as §3
The training set of salicylaldehyde hydrazones contained 11 compounds synthesized and tested before in our Lab. Their anticancer activities were measured and expressed as IC50 values on the following cell lines: HL-60, KE-37, K-562, BV-173, SaOS-2, MDA-MB-231, and MCF-7. For the purposes of SAR analysis, the IC50 values were converted in p-units (−logIC50) and ligand efficiencies (LEs) were calculated according to the formula: LE = pIC50/n, where n is the count of non-hydrogen atoms in the molecule.

[3] = training set, some activities published before [26-32], the rest measured for this study, read-out: IC50 ± standard deviation, K-562
[4] = training set, some activities published before [26-32], the rest measured for this study, read-out: IC50 ± standard deviation, SaOS-2
[5] = training set, some activities published before [26-32], the rest measured for this study, read-out: IC50 ± standard deviation, BV-173
[6] = training set, some activities published before [26-32], the rest measured for this study, read-out: IC50 ± standard deviation, MDA-MB-231
[7] = training set, some activities published before [26-32], the rest measured for this study, read-out: IC50 ± standard deviation, KE-37
[8] = training set, some activities published before [26-32], the rest measured for this study, read-out: IC50 ± standard deviation, MCF-7
[9] = training set, some activities published before [26-32], the rest measured for this study, read-out: IC50 ± standard deviation, HL-60
[10] = 72 h treatment, read-out: IC50 exp, K-562
[11] = 72 h treatment, read-out: IC50 exp, SaOS-2
[12] = 72 h treatment, read-out: IC50 exp, BV-173
[13] = 72 h treatment, read-out: IC50 exp, MDA-MB-231
[14] = 72 h treatment, read-out: IC50 exp, KE-37
[15] = 72 h treatment, read-out: IC50 exp, MCF-7
[16] = 72 h treatment, read-out: IC50 exp, HL-60

SMILES | IC50 (K-562 cells; [3]) | Ligand Efficiency (LE) K-562 (K-562 cells) | IC50 (SaOS-2 cells; [4]) | IC50 (BV-173 cells; [5]) | IC50 (MDA-MB-231 cells; [6]) | IC50 (KE-37 cells; [7]) | IC50 (MCF-7 cells; [8]) | IC50 (HL-60 cells; [9]) | other results
O=C(N/N=C/c1cc([N+](=O)[O-])ccc1O)c1ccncc1 [Compound 8] | 19 ± 2.7 µM | 0.225 | 35.7 ± 4.3 µM | 10.2 ± 1.1 µM | 72.3 ± 5.6 µM | 17 ± 3.1 µM | 0.18 ± 0.03 µM | 15 ± 2.4 µM | 
COc1cccc(/C=N/NC(=O)c2ccccc2)c1O [Compound 1] | 27 ± 2.7 µM | 0.228 | 25.5 ± 6.2 µM | 20.8 ± 4.2 µM | 25.3 ± 2.7 µM | 9.8 ± 3.1 µM | 22.5 ± 5.4 µM | 11.3 ± 2.6 µM | 
COc1ccc(O)c(/C=N/NC(=O)c2ccc(O)cc2)c1 [Compound 10] |  |  |  | 3.86 ± 0.9 µM | 12.1 ± 1.9 µM | 14.8 ± 2.5 µM | 3.54 ± 0.5 µM | 13.8 ± 3.1 µM | 
COc1cccc(/C=N/NC(=O)c2ccc(O)cc2)c1O [Compound 2] | 14.3 ± 2.9 µM | 0.231 | 19.2 ± 3.1 µM | 7.8 ± 2 µM | 24.2 ± 3.8 µM | 7.6 ± 2.1 µM | 19.7 ± 2.2 µM | 9.2 ± 2.4 µM | 
O=C(N/N=C/c1cc(Br)ccc1O)c1ccc(O)cc1 [Compound 4] | 2.83 ± 0.3 µM | 0.277 | 50 ± 5.7 µM |  | 20.1 ± 3.9 µM | 3 ± 0.5 µM | 8.88 ± 2.7 µM | 3.14 ± 1.1 µM | 
O=C(N/N=C/c1cc([N+](=O)[O-])ccc1O)c1ccc(O)cc1 [Compound 7] | > 200 µM |  | 199 ± 12 µM | 7.62 ± 1 µM | > 200 µM | 19.9 ± 2.2 µM | 4.95 ± 0.06 µM | 14.5 ± 2.1 µM | 
COc1ccc(C=NNC(=O)c2ccncc2)c(O)c1 [Compound 14, 4-methoxysalicylaldehyde isonicotinoylhydrazone] |  |  |  |  |  |  |  |  | IC50 (K-562 cells; [10]): 0.05 ± 0.008 µM; SI (selectivity index) K-562 (K-562 cells): 821; IC50 at 72 h [1]: 41.1 ± 2.05 µM; IC50 (SaOS-2 cells; [11]): 1.66 ± 0.24 µM; SI (selectivity index) SaOS-2 (SaOS-2 cells): 25; IC50 (BV-173 cells; [12]): 0.97 ± 0.12 µM; SI (selectivity index) BV-173 (BV-173 cells): 42; average SI [2]: 258; IC50 (MDA-MB-231 cells; [13]): 1.22 ± 0.19 µM; SI (selectivity index) MDA-MB-231 (MDA-MB-231 cells): 34; IC50 (KE-37 cells; [14]): 2.26 ± 0.73 µM; SI (selectivity index) KE-37 (KE-37 cells): 18; IC50 (MCF-7 cells; [15]): 0.23 ± 0.04 µM; SI (selectivity index) MCF-7 (MCF-7 cells): 179; IC50 (HL-60 cells; [16]): 0.06 ± 0.004 µM; SI (selectivity index) HL-60 (HL-60 cells): 685
COc1ccc(C=NNC(=O)c2ccccc2)c(O)c1 [Compound 12, 4-methoxysalicylaldehyde benzoylhydrazone] |  |  |  |  |  |  |  |  | IC50 (K-562 cells; [10]): 0.03 ± 0.002 µM; SI (selectivity index) K-562 (K-562 cells): 1254; IC50 at 72 h [1]: 37.6 ± 3.41 µM; IC50 (SaOS-2 cells; [11]): 1.68 ± 0.15 µM; SI (selectivity index) SaOS-2 (SaOS-2 cells): 22; IC50 (BV-173 cells; [12]): 1.21 ± 0.11 µM; SI (selectivity index) BV-173 (BV-173 cells): 31; melting point: 182 to 183 °C; average SI [2]: 350; IC50 (MDA-MB-231 cells; [13]): 2.31 ± 0.25 µM; SI (selectivity index) MDA-MB-231 (MDA-MB-231 cells): 16; IC50 (KE-37 cells; [14]): 1.99 ± 0.17 µM; SI (selectivity index) KE-37 (KE-37 cells): 19; IC50 (MCF-7 cells; [15]): 0.23 ± 0.02 µM; SI (selectivity index) MCF-7 (MCF-7 cells): 164; IC50 (HL-60 cells; [16]): 0.04 ± 0.005 µM; SI (selectivity index) HL-60 (HL-60 cells): 941
